ChEMBL document CHEMBL4602676, “Discovery and Development of 3-(6-Chloropyridine-3-yloxymethyl)-2-azabicyclo[3.1.0]hexane Hydrochloride (SUVN-911): A Novel, Potent, Selective, and Orally Active Neuronal Nicotinic Acetylcholine α4β2 Receptor Antagonist for the Treatment of Depression” (J Med Chem, 2020)

Experiments:
[1] = target: Neuronal acetylcholine receptor; alpha4/beta2 (Rattus norvegicus) (UniProt P09483+P12390); experiment: In vivo receptor occupancy at alpha4beta2 nAChR in Wistar rat pretreated for 15 mins followed by non radiolabelled ZW-104 tracer treatment and measured after 45 mins by LC-MS/MS analysis; type: functional, organism-based
[2] = Terminal half life in Beagle dog at 1 mg/kg, iv by LC-MS/MS analysis; type: ADME, organism-based, Canis lupus familiaris; details: in vivo, read-out: beta t1/2 (converted)
[3] = Genotoxicity in Salmonella typhimurium TA1535 in absence of metabolic activation; type: toxicity; details: salmonella enterica subsp. enterica serovar typhimurium
Caco-2 = experiment: Ratio of apparent permeability across basolateral to apical over apical to basolateral side in human Caco2 cells; type: ADME, cell-based
[4] = target: T1, Solute carrier family 22 member 1 (Homo sapiens, UniProt O15245); experiment: Inhibition of OCT1 (unknown origin)
T1 sequence (O15245 whole entry): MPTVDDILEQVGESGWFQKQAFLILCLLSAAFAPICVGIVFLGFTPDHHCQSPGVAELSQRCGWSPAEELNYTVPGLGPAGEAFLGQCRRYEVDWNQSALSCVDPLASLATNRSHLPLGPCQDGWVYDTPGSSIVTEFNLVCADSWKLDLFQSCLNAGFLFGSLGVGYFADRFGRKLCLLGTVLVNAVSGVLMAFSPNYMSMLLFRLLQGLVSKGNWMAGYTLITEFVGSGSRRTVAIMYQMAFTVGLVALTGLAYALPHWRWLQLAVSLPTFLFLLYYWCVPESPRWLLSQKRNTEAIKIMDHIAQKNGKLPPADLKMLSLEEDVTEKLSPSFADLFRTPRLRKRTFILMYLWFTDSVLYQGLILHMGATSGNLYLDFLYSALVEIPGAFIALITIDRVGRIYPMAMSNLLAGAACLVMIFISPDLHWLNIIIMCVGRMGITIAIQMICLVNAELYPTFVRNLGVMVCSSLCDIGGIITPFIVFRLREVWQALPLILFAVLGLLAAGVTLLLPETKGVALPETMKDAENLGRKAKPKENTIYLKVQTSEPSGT

Rattus norvegicus [5] = experiment: Antidepressant activity in Wistar rat assessed as immobility time at 10.0 mg/kg, po measured for 5 mins by forced swim test (reference value: 241.9 to 281.6 sec); type: functional
[6] = Ratio of drug level in brain to plasma in Wistar rat at 10 ml/kg, po or 2 ml/kg, iv measured upto 24 hrs by LC-MS/MS analysis; type: ADME, organism-based; details: brain and plasma, read-out: BPR
Lymphocyte = experiment: Genotoxicity in human peripheral lymphocytes assessed as non clastogenic by chromosomal aberration assay; type: toxicity, cell-based
[7] = Toxicity in telemetered Beagle dog assessed as change in heart rate up to 25 mg/kg, po; type: organism-based, Canis lupus familiaris; details: in vivo
[8] = target: Neuronal acetylcholine receptor; alpha4/beta2 (Homo sapiens, UniProt P17787+P43681); experiment: Displacement of [3H]cytisine from human alpha4beta2 nAChR expressed in CHOK1 cell membrane by microbeta scintillation counting method; type: cell membranes, CHO-K1
[9] = target: Voltage-gated inwardly rectifying potassium channel KCNH2 (Homo sapiens, UniProt Q12809); experiment: Inhibition of recombinant human ERG expressed in HEK293 at -80 mV holding potential by whole-cell patch clamp method; type: cell-based
Cytochrome P450 2B6 = target: T2, Cytochrome P450 2B6 (Homo sapiens, UniProt P20813); experiment: Induction of CYP2B6 (unknown origin); type: ADME
T2 sequence (P20813 whole entry): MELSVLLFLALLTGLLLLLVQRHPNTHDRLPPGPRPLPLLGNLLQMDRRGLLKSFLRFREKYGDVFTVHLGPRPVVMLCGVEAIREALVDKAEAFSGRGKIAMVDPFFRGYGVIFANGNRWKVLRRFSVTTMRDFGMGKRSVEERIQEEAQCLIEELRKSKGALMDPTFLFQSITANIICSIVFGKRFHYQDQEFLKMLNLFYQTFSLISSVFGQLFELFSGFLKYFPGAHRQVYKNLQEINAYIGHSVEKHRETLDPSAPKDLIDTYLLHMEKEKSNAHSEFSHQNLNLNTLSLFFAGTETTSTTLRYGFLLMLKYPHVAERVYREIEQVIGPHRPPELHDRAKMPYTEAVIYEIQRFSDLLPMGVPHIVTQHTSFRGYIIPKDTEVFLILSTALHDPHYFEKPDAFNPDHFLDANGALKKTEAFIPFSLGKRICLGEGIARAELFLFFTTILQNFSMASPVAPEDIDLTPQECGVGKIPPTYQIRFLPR

[10] = Genotoxicity in Salmonella typhimurium TA1537 in absence of metabolic activation; type: toxicity; details: salmonella enterica subsp. enterica serovar typhimurium
Rattus norvegicus [11] = experiment: Antidepressant activity in Wistar rat assessed as immobility time at 3.0 mg/kg, po measured for 5 mins by forced swim test (reference value: 241.9 to 281.6 sec); type: functional
[12] = Clearance in Beagle dog at 1 mg/kg, iv by LC-MS/MS analysis; type: ADME, organism-based, Canis lupus familiaris; details: in vivo
[13] = Apparent permeability in human Caco2 cells; type: ADME, cell-based; details: caco-2

Chain of Voltage-gated inwardly rectifying potassium channel KCNH2 (Q12809 whole entry): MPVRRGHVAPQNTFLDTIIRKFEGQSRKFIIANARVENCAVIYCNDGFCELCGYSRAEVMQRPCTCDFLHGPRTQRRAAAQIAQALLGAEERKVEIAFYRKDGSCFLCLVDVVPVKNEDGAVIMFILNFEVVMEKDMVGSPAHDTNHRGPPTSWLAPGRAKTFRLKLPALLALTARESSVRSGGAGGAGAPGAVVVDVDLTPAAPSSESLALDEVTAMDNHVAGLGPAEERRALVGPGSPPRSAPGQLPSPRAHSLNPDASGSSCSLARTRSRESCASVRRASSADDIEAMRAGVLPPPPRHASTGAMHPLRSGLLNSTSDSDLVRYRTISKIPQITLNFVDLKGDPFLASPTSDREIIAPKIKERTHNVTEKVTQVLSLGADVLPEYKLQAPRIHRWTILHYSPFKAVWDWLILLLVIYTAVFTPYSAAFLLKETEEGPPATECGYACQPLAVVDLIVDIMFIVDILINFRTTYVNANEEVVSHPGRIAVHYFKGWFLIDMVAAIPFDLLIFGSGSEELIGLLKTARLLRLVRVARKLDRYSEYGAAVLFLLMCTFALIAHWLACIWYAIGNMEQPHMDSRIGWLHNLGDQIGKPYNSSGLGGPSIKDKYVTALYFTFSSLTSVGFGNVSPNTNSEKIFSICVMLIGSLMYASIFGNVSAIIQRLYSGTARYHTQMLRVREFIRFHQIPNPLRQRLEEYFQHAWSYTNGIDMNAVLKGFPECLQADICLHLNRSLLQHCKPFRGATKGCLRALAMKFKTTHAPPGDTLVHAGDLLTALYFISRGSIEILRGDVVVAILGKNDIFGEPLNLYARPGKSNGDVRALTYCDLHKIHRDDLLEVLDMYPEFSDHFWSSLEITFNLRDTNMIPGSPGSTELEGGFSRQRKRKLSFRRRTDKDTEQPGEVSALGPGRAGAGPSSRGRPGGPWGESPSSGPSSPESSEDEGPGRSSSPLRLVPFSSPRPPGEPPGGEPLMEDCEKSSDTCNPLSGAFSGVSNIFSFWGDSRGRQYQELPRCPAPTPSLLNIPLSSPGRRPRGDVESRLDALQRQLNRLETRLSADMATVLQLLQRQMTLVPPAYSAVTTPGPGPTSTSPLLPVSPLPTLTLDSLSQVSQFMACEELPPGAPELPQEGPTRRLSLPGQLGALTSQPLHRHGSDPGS
Chain of Neuronal acetylcholine receptor; alpha4/beta2 (P17787 whole entry): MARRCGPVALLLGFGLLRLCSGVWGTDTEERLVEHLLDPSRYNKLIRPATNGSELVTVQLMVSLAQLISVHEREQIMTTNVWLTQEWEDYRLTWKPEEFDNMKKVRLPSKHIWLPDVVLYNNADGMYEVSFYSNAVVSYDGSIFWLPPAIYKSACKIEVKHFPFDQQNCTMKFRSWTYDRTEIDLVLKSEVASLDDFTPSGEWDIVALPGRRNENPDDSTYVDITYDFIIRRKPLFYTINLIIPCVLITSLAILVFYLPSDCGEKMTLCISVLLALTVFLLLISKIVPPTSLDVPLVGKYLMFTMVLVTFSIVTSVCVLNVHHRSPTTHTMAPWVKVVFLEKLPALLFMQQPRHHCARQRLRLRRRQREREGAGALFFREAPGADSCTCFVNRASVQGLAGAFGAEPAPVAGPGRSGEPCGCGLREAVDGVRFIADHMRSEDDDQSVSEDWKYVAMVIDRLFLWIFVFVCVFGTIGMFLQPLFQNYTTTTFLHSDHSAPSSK
Chain of Neuronal acetylcholine receptor; alpha4/beta2 (P43681 whole entry): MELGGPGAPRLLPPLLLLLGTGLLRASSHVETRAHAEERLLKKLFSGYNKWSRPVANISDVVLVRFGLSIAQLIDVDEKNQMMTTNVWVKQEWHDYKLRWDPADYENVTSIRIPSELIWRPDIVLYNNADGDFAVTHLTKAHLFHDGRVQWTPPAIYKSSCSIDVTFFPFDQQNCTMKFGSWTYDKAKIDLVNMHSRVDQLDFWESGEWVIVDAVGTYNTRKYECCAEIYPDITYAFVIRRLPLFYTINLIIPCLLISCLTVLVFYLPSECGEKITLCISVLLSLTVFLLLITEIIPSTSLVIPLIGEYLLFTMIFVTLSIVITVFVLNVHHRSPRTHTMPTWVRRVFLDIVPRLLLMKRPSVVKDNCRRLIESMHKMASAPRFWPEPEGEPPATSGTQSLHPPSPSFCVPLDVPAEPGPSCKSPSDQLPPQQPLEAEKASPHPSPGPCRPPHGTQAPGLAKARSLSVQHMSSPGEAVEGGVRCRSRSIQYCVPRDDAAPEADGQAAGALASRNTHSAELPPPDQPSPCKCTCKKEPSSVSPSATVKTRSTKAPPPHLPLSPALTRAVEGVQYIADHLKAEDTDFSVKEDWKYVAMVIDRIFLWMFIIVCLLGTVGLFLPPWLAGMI

Compound: Cl.Clc1ccc(OC[C@@H]2C[C@H]3C[C@H]3N2)cn1
- Activity [1]: Dose-dependent effect
- ED50 [1]: 1610 nM
- half-life [2]: 1.9 h
- Activity [3]: Non-Toxic
- Ratio (Caco-2): 0.7
- inhibition (INH) [4]: Not Active
- Time (Rattus norvegicus [5]): 81.5 s
- Kp at 24 h [6]: 2.34
- Activity (Lymphocyte): Non-Toxic
- Activity [7]: Non-Toxic
- Ki [8]: 1.5 nM
- IC50 [9]: > 10000 nM
- Activity (Cytochrome P450 2B6): Not Active
- Activity [10]: Non-Toxic
- Time (Rattus norvegicus [11]): 155.9 s
- clearance [12]: 10 mL/min/kg
- Papp [13]: 68.8 ×10⁻⁶ cm/s
